These results are taken from PMC8955734, “4-Arylthiosemicarbazide Derivatives as Toxoplasmic Aromatic Amino Acid Hydroxylase Inhibitors and Anti-inflammatory Agents” (International Journal of Molecular Sciences, 2022).

For data set [1], the target named is T1, AAH2 (toxoplasmic aromatic amino acid hydroxylase 2), catalytic domain (Toxoplasma gondii, UniProt S8FBW5).
T1 construct: catalytic domain, pET-45b (His-tag), expressed in E. coli BL21 GOLD (DE3) pLysS, cobalt resin
T1 sequence (S8FBW5 156-565): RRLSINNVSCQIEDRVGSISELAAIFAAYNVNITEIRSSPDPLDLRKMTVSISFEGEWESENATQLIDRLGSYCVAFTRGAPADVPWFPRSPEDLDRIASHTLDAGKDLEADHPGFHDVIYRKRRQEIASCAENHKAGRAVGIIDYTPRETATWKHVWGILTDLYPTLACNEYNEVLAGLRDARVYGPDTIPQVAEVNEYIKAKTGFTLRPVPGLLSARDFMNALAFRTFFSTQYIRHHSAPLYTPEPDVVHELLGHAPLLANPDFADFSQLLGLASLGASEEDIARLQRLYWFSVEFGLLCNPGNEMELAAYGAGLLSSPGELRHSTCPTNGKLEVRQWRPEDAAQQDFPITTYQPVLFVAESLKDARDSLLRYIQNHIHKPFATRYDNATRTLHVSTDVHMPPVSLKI
The data set can be described thus: coupled NADH oxidation assay (dihydropteridine reductase), […] nm; fit to competitive inhibition equation. The data set is classed as biochemical. The following applies: read-out: KI ^c.

The target of data set [2] is T2, AAH1 (toxoplasmic aromatic amino acid hydroxylase 1), catalytic domain (Toxoplasma gondii, UniProt S8G872).
T2 construct: catalytic domain, pET-45b (His-tag), expressed in E. coli BL21 GOLD (DE3) pLysS, cobalt resin
T2 sequence (S8G872 1-390 limits assumed): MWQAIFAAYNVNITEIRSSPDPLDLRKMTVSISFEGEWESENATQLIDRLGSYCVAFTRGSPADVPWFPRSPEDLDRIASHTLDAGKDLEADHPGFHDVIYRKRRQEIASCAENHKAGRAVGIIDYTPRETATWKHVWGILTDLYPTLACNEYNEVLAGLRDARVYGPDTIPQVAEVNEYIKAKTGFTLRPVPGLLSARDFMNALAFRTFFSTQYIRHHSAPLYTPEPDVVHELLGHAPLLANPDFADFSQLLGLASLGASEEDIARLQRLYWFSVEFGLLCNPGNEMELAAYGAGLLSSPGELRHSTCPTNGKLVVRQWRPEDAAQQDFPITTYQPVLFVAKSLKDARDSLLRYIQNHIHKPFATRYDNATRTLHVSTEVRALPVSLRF
The description is as above. The data set is classed as biochemical. The following applies: read-out: KI ^c.

In data set [3] the target is T2, AAH1 (toxoplasmic aromatic amino acid hydroxylase 1), catalytic domain. As to the kind of experiment: DARTS (Pronase protection, Western blot). Type of data set: binding. To be noted: 10 µM compound, and dose-dependent; room temperature.
Substrate in the data set “purified protein”: N[C@@H](Cc1ccc(O)cc1)C(=O)O
The data set can be described thus: purified protein. The data set is classed as biochemical, Toxoplasma gondii. To be noted: no inhibitor, 500 µM (6R)-BH4, 500 µM NADH, 10 µM ferrous ammonium sulfate, pH 7.5, 32 °C.

In general, Ki refers to a measure of affinity in units of concentration, obtained from inhibition or displacement. Turning to `Cc1nc[nH]c1C(=O)NNC(=S)Nc1ccc([N+](=O)[O-])cc1` [2a], the inhibition constant Ki is 3690 nM in data set [1] and 1490 nM in data set [2]. Moreover, the “DARTS (Pronase protection, Western blot)” value in data set [3] was “Proteolysis of AAH1 by Pronase was clearly inhibited by the presence of 2a and 6a”.
In the case of `Cc1nc[nH]c1C(=O)NNC(=S)Nc1cccc(I)c1` [6a], the inhibition constant (Ki) is 3230 nM in data set [1] and 1260 nM in data set [2]. Further, in data set [3], the “DARTS (Pronase protection, Western blot)” value is “Proteolysis of AAH1 by Pronase was clearly inhibited by the presence of 2a and 6a”.

B1: AAH2 (toxoplasmic aromatic amino acid hydroxylase 2), catalytic domain (Toxoplasma gondii ME49) (protein)
chain: T1 sequence (S8FBW5 156-565)
notes: catalytic domain, pET-45b (His-tag), expressed in E. coli BL21 GOLD (DE3) pLysS, cobalt resin
One may read the Km as the concentration of substrate that gives half-maximal velocity. As to B1, the Km in “purified protein” is 71 µM.

B2: AAH1 (toxoplasmic aromatic amino acid hydroxylase 1), catalytic domain (Toxoplasma gondii ME49) (protein)
chain: T2 sequence (S8G872 1-390 limits assumed)
notes: as for B1
As to B2, the Km in the data set “purified protein” turned out to be 30 µM.
